The source of these data is paper PMC10619477 (RSC Advances, 2023).

As usually defined, the IC50 is the concentration at which inhibition is half-maximal. Usually Papp stands for the rate of passage across a membrane or cell layer, normalised by area and donor concentration. Broadly, the viability is a per cent measure of how many cells are alive, often set against a control.

Series [1] can be described thus: DPPH radical scavenging assay. Format: biochemical. To be noted: for IC50: read-out: DPPH (IC50), mean ± SEM, three determinations; for DPPH inhibiting rate: in the presence of 0.5 mM compounds. (In general: Loss of DPPH colour is used to gauge radical scavenging.)
The nature of series [2]: ABTS radical cationic decolorization assay. To be noted: read-out: ABTS (IC50); concentration that inhibits 50% of free radicals, mean ± SEM. It is filed as biochemical.
A short description of series [3]: in vitro. To be noted: PAMPA. On the technique in general: PAMPA measures passive passage across an artificial lipid membrane.
The subject of series [4] is SH-SY5Y cells. As to conditions: MTT; for Cytotoxicity on SH-SY5Y cells (in words): 0–80 μM.
For series [5] the following is noted: from PAMPA-BBB Pe.
Series [6] relates to SH-SY5Y cells exposed to 100 μM H2O2. In words: Protection of SH-SY5Y cells from H2O2-induced oxidative damage. It is filed as cell-based, Human.
The test system of series [7] is intracellular ROS in H2O2-injured SY5Y cells. The series can be described thus: Intracellular ROS levels. Format: cell-based, Human. To be noted: 0.1, 1 or 10 μM, 100 μM H2O2 24 h, DCFH-DA.
Series [8] deals with intracellular GSH in H2O2-injured SY5Y cells. In words: Total glutathione. Format: cell-based, Human. As to conditions: pretreatment with 10 μM, 100 μM H2O2.
Series [9] has as its system MMP in H2O2-incubated SY5Y cells. In words: Mitochondrial membrane potential assay. As to conditions: 10 μM, 100 μM H2O2 24 h, JC-1.

Marks after values point to notes of the source that are not given here.

Consider “2-(3,4-Dimethoxyphenyl)-N-octylacetamide [Compound 3d]”, for which the results for the IC50 in series [1] and in [2] were 67.6 ± 4.74 µM and 24.3 ± 3.62 µM, respectively.
The compound `Cn1c(=O)c2c(ncn2C)n(C)c1=O` [Caffeine, reference compound] came in with an apparent permeability coefficient (Papp) at 16 h, 100 mg mL^−1 in [3] of 0.79 ± 0.1 ×10⁻⁶ cm/s.
For `COc1cc(CNC(=O)CCCC/C=C/C(C)C)ccc1O` [Compound 3a, capsaicin, reference compound], the 50% inhibitory concentration (IC50) worked out at 52.1 ± 3.21 µM in series [1] and 16.9 ± 1.64 µM in series [2].
For the compound `COc1cc(CNC(=O)CCCCCCC(C)C)ccc1O` [Compound 3b, Dihydrocapsaicin], the IC50 in series [1] was 50.9 ± 4.08 µM; in [2], 11.3 ± 1.55 µM. In [3], the apparent permeability coefficient (Papp) at 16 h, 100 mg mL^−1 worked out at 5.96 ± 0.78 ×10⁻⁶ cm/s.
For `CC(C)CCCCCCC(=O)NCc1ccc(O)c(O)c1` [Compound 3c, N-(3,4-Dihydroxybenzyl)-8-methylnonanamide], the 50% inhibitory concentration (IC50) in [1] turned out to be 7.33 ± 0.98 µM; in [2], 16.8 ± 2.1 µM. Further, the “Cytotoxicity on SH-SY5Y cells (in words)” value in series [4] is reported as “strong growth inhibition”. In addition, in [5], the “Prediction (penetration into CNS)” value is “CNS+ (CNS+ is predicted as high BBB permeation with Pe (×10^−6 cm s^−1) > 4.33)”. The compound further showed an apparent permeability coefficient (Papp) at 16 h, 100 mg mL^−1 in [3] of 8.45 ± 0.57 ×10⁻⁶ cm/s.
Take `CCCCCCC(=O)NCc1ccc(OC)c(OC)c1` [Compound 3e, N-(3,4-Dimethoxybenzyl)heptanamide]: in series [1], the “DPPH radical scavenging activity (in words)” value is recorded as “little radical scavenging activities” and the DPPH inhibiting rate was 27.33 ± 2.88% ^c. Further, the “Prediction (penetration into CNS)” value in series [5] was “CNS+ (CNS+ is predicted as high BBB permeation with Pe (×10^−6 cm s^−1) > 4.33)”. The compound further displayed an apparent permeability coefficient (Papp) at 16 h, 100 mg mL^−1 in series [3] of 10.8 ± 1.03 ×10⁻⁶ cm/s.
`CCCCCCNC(=O)Cc1ccc(O)c(OC)c1` [Compound 3f, N-Hexyl-2-(4-hydroxy-3-methoxyphenyl)acetamide]: the concentration for half-maximal inhibition (IC50) turned out to be 139 ± 6.89 µM in [1] and 13.1 ± 1.47 µM in [2]. The “Prediction (penetration into CNS)” value in series [5] is given as “CNS+ (CNS+ is predicted as high BBB permeation with Pe (×10^−6 cm s^−1) > 4.33)”. For the same compound, the apparent permeability coefficient (Papp) at 16 h, 100 mg mL^−1 in [3] was determined as 6.24 ± 0.98 ×10⁻⁶ cm/s.
Regarding `CCCCCCNC(=O)Cc1ccc(OC)c(OC)c1` [Compound 3g, 2-(3,4-Dimethoxyphenyl)-N-hexylacetamide], in series [1], the “DPPH radical scavenging activity (in words)” value is recorded as “little radical scavenging activities” and the DPPH inhibiting rate came out at 12.76 ± 2.54% ^c. The “Prediction (penetration into CNS)” value in series [5] is listed as “CNS+ (CNS+ is predicted as high BBB permeation with Pe (×10^−6 cm s^−1) > 4.33)”. Besides, the Papp at 16 h, 100 mg mL^−1 in [3] was 11.2 ± 0.68 ×10⁻⁶ cm/s.
Consider `CCCCCCNC(=O)Cc1ccc(O)c(O)c1` [Compound 3h, 2-(3,4-Dihydroxyphenyl)-N-hexylacetamide], for which the IC50 stood at 4.49 ± 0.74 µM in series [1] and 18.6 ± 3.03 µM in series [2]. Also, the “Prediction (penetration into CNS)” value in series [5] is recorded as “CNS+ (CNS+ is predicted as high BBB permeation with Pe (×10^−6 cm s^−1) > 4.33)”. Further, the Papp at 16 h, 100 mg mL^−1 in [3] was determined as 7.68 ± 0.47 ×10⁻⁶ cm/s.
For `CCCCCCCC(=O)NCc1ccc(O)c(OC)c1` [Compound 3i, N-(4-Hydroxy-3-methoxybenzyl) octanamide], the IC50 in [1] came to 27.9 ± 4.55 µM; in series [2], 13.6 ± 2.9 µM.
Take `CCCCCCCC(=O)NCc1ccc(OC)c(OC)c1` [Compound 3j, N-(3,4-Dimethoxybenzyl)octanamide]: in series [1], the “DPPH radical scavenging activity (in words)” value is “little radical scavenging activities” and the DPPH inhibiting rate is 22.72 ± 5.47% ^c.
As to `CCCCCCCC(=O)NCc1ccc(O)c(O)c1` [Compound 3k, N-(3,4-Dihydroxybenzyl)octanamide], the IC50 in series [1] was determined as 5.06 ± 1.34 µM; in [2], 10.6 ± 1.28 µM. Besides, the “cell viability under H2O2 (in words)” value in series [6] (0.1, 1 or 10 μM pretreatment, 100 μM H2O2) was “increased dose-dependently”. The viability at 10 µM in [6] (Homo sapiens, SH-SY5Y, read-out: cell viability) worked out at 90 ± 5.5%. For the same compound, the “intracellular ROS fluorescence intensity (in words)” value in series [7] is given as “decreased gradually”. The “H2O2-induced decrease of intracellular GSH (in words)” value in [8] was “blocked”. Also, the “Cytotoxicity on SH-SY5Y cells (in words)” value in [4] was “little toxicity”. Besides, the “Prediction (penetration into CNS)” value in [5] was “CNS+ (CNS+ is predicted as high BBB permeation with Pe (×10^−6 cm s^−1) > 4.33)”. This compound also came in with an apparent permeability coefficient (Papp) at 16 h, 100 mg mL^−1 in series [3] of 9.23 ± 0.57 ×10⁻⁶ cm/s. Also, the “H2O2-induced reduction of MMP (in words)” value in series [9] is “blocked significantly”.
Regarding `CCCCCCCCC(=O)NCc1ccc(O)c(OC)c1` [Compound 3l, N-(4-Hydroxy-3-methoxybenzyl)nonanamide], the IC50 in series [1] worked out at 27.2 ± 3.47 µM; in series [2] it was 44.2 ± 4.65 µM.
For the compound `CCCCCCCCC(=O)NCc1ccc(OC)c(OC)c1` [Compound 3m, N-(3,4-Dimethoxybenzyl)nonanamide], in series [1], the “DPPH radical scavenging activity (in words)” value is given as “little radical scavenging activities” and the DPPH inhibiting rate turned out to be 18.56 ± 2.33% ^c. Further, in series [5], the “Prediction (penetration into CNS)” value is on record as “CNS+ (CNS+ is predicted as high BBB permeation with Pe (×10^−6 cm s^−1) > 4.33)”. This compound also returned a Papp at 16 h, 100 mg mL^−1 in series [3] of 10.6 ± 0.38 ×10⁻⁶ cm/s.
In the case of `CCCCCCCCC(=O)NCc1ccc(O)c(O)c1` [Compound 3n, N-(3,4-Dihydroxybenzyl) nonanamide], the IC50 worked out at 5.91 ± 0.77 µM in series [1] and 22.7 ± 2.34 µM in series [2]. The “Cytotoxicity on SH-SY5Y cells (in words)” value in series [4] was “strong growth inhibition”. For the same compound, in series [5], the “Prediction (penetration into CNS)” value was “CNS+ (CNS+ is predicted as high BBB permeation with Pe (×10^−6 cm s^−1) > 4.33)”. In series [3], the apparent permeability (Papp) at 16 h, 100 mg mL^−1 amounted to 10.1 ± 0.34 ×10⁻⁶ cm/s.
Take `CCCCCCCCNC(=O)Cc1ccc(O)c(OC)c1` [Compound 3o, 2-(4-Hydroxy-3-methoxyphenyl)-N-octylacetamide]: the half-maximal inhibitory concentration (IC50) amounted to 185 ± 9.86 µM in [1] and 30.9 ± 2.79 µM in series [2].
With `CCCCCCCCNC(=O)Cc1ccc(OC)c(OC)c1` [Compound 3p, 2-(3,4-Dimethoxyphenyl)-N-octylacetamide], in series [1], the “DPPH radical scavenging activity (in words)” value was “little radical scavenging activities” and the DPPH inhibiting rate is reported as 30.48 ± 3.44% ^c.
Turning to `CCCCCCCCNC(=O)Cc1ccc(O)c(O)c1` [Compound 3q, 2-(3,4-Dihydroxyphenyl)-N-octylacetamide], the results for the half-inhibitory concentration (IC50) in series [1] and in series [2] were 4.14 ± 1.09 µM and 21.6 ± 3.69 µM, respectively. In addition, in series [4], the “Cytotoxicity on SH-SY5Y cells (in words)” value is given as “strong growth inhibition”. In series [5], the “Prediction (penetration into CNS)” value is given as “CNS+ (CNS+ is predicted as high BBB permeation with Pe (×10^−6 cm s^−1) > 4.33)”. The Papp at 16 h, 100 mg mL^−1 in [3] was 6.54 ± 0.81 ×10⁻⁶ cm/s.
Consider `OO` [Compound H2O2, H2O2, reference compound], for which the “cell viability of H2O2-treated SY5Y cells” value in series [6] (100 μM H2O2 alone, compared with control (100%)) was 63.3 ± 4.5%. Further, the “inhibition in SH-SY5Y cells” value in series [4] (H2O2 at 100 μM) was 38.1 ± 7.6%. For the same compound, the “effect on SH-SY5Y cell viability (in words)” value in series [4] (H2O2 at 25 and 50 μM) is listed as “no apparent inhibitory or promotive effects”.
In [3], `C[C@]12CC[C@@H]3c4ccc(O)cc4CC[C@H]3[C@@H]1CC[C@@H]2O` [Estradiol, reference compound] showed an apparent permeability (Papp) at 16 h, 100 mg mL^−1 of 13.2 ± 0.51 ×10⁻⁶ cm/s.
In the case of `O=c1c(O)c(-c2ccc(O)c(O)c2)oc2cc(O)cc(O)c12` [Quercetin, reference compound], the concentration for half-maximal inhibition (IC50) was 8.7 ± 1.75 µM in series [1] and 13.8 ± 2.87 µM in [2].
